Experimental data as given in PMC4584356, “A Pimarane Diterpene and Cytotoxic Angucyclines from a Marine-Derived Micromonospora sp. in Vietnam’s East Sea” (Marine Drugs, 2015).
In brackets after ≈: the same amount, converted by molar mass.

Key:
Kuramochi = assay: cells; format: cell-based; conditions: Homo sapiens, 72 h, read-out: Cytotoxicity LC50 Kuramochi
Method: (§1) Following their identification, compounds 1–5 were assessed for cytotoxicity in two high-grade ovarian cancer cell lines, OVCAR4 and Kuramochi. Potential for selective cytotoxicity was evaluated using two non-cancerous mouse cell lines representing the putative progenitor cells of ovarian cancer, murine ovarian surface epithelial (MOSE) and murine oviductal epithelial (MOE). […] Generally speaking, this para-quinone scaffold is not an attractive lead, as higher toxicity in non-tumorigenic cell lines confers serious overall toxicity.
(§2) Human ovarian OVCAR4 and Kuramochi cancer cells were maintained in RPMI 1640 (11875-093, Life-technologies; Carlsbad, CA, USA) supplemented with 10% FBS (16000-044, Life-technologies; Carlsbad, CA, USA) and 1% penicillin/streptomycin. Non-cancerous murine ovarian surface epithelium (MOSE) and murine oviductal epithelium (MOE) cells were maintained as previously reported. Concentration-response experiments were performed as previously described for 72 h.

OVCAR4 = assay: cells; format: cell-based; conditions: Homo sapiens, OVCAR-4, 72 h, read-out: Cytotoxicity LC50 OVCAR4
Method: as §1, §2

[1] = tested on: M. tuberculosis H37Rv ATCC 27294; assay: Microplate alamar blue assay (MABA), replicating M. tuberculosis; format: cell-based; conditions: for MIC: Mycobacterium tuberculosis, MIC = lowest concentration giving ≥90% growth inhibition, averaged from triplicates
[2] = tested on: M. tuberculosis H37Rv ATCC 27294; assay: Low oxygen recovery assay (LORA), non-replicating M. tuberculosis; format: cell-based; conditions: Mycobacterium tuberculosis
[3] = tested on: OVCAR4, Kuramochi, MOSE and MOE cell lines; assay: Cytotoxicity panel of cancerous and non-cancerous cell lines (overall statements, selectivity); format: cell-based; conditions: for Cytotoxicity in the cell line panel (in words): OVCAR4, Kuramochi, MOSE, MOE
Method: as §1, §2

[4] = tested on: panel of Gram-negative and Gram-positive bacteria; design: method as in PMID 2925509; conditions: cited from earlier work
[5] = tested on: wide range of cancer cell lines; conditions: previous reports; cited from earlier work
[6] = tested on: L1210 lymphocytic leukemia cells; design: method as in PMID 11395569; conditions: L1210 lymphocytic leukemia cells in vitro; read-out: IC50 range, inhibition of tumor cell proliferation and viability; cited from earlier work
Eimeria tenella = tested on: Eimeria tenella; design: method as in PMID 7451359, PMID 7451360; conditions: apicomplexan poultry parasite Eimeria tenella; cited from earlier work
[7] = tested on: two fungal species, a human parasite, and several Gram-negative and Gram-positive bacteria; design: method as in PMID 7451359, PMID 7451360; conditions: cited from earlier work

C=C[C@@]1(C)CCC2=C(CC[C@H]3C(C)(C)[C@@H](O)C(=O)C[C@]23C)C1 [Compound 1, isopimara-2-one-3-ol-8,15-diene]
CC50 (Kuramochi): > 33.1 µM | CC50 (OVCAR4): > 33.1 µM | Activity in MABA (in words) [1]: lacked significant activity | MIC [1]: 19.4 µg/mL (≈ 64.1 µM) | MIC [2]: > 50 µg/mL | Cytotoxicity in the cell line panel (in words) [3]: not significantly active

Cc1cc(O)c2c3c(c(O)cc2c1)C(=O)c1c(O)cccc1C3=O [Compound 3, dehydrorabelomycin]
CC50 (Kuramochi): 6.72 µM | CC50 (OVCAR4): 11 µM | MIC [1]: 1.01 µg/mL (≈ 3.15 µM) | MIC [2]: 19.6 µg/mL (≈ 61.2 µM) | Cytotoxicity in the cell line panel (in words) [3]: non-specifically cytotoxic | Antibacterial activity (in words) [4]: no detectable activity | Inhibition of cancer cell lines (in words) [5]: inhibited a wide range of cancer cell lines at micromolar potency

COc1cc(C)cc2c(=O)oc3c(c12)C(=O)c1cccc(O)c1C3=O [Compound 5, WS-5995 A]
CC50 (Kuramochi): 18.6 µM | CC50 (OVCAR4): 127 µM | Activity in MABA (in words) [1]: lacked significant activity | MIC [1]: 22.7 µg/mL (≈ 67.5 µM) | MIC [2]: > 50 µg/mL | Greater activity toward Kuramochi ovarian cancer cells ([3]; Kuramochi versus the other cell lines of the panel): approximately seven-fold | Cytotoxicity in the cell line panel (in words) [3]: enhanced cytotoxicity against the Kuramochi cell line when compared to non-tumorigenic cell lines | IC50 [6]: 0.24 to 0.65 µM | Anticoccidial activity (in words) (Eimeria tenella): anticoccidial activity | Biological activity against antimicrobial panel (in words) [7]: no significant biological activity

Cc1cc(O)c2c(c1)COC1=C2C(=O)c2cccc(O)c2C1=O [Compound 2, lagumycin B]
CC50 (Kuramochi): > 32.5 µM | CC50 (OVCAR4): > 32.5 µM | MIC [1]: 2.01 µg/mL (≈ 6.52 µM) | MIC [2]: 25.7 µg/mL (≈ 83.4 µM)

Cc1cc(O)c2c3c(ncc2c1)C(=O)c1c(O)cccc1C3=O [Compound 4, phenanthroviridone]
CC50 (Kuramochi): 1.11 µM | CC50 (OVCAR4): 4.82 µM | MIC [1]: 0.72 µg/mL (≈ 2.36 µM) | MIC [2]: 17.8 µg/mL (≈ 58.3 µM) | Cytotoxicity in the cell line panel (in words) [3]: non-specifically cytotoxic

COc1cccc2c1C(=O)c1c(O)c3c(c(O)c1C2=O)C[C@@](O)(C(=O)CO)C[C@@H]3O[C@H]1C[C@H](N)[C@H](O)[C@H](C)O1 [Doxorubicin, reference compound]
CC50 (Kuramochi): < 0.078 µM | CC50 (OVCAR4): < 0.078 µM
